The values that follow come from article PMC11173485, “Connecting GSK-3β Inhibitory Activity with IKK-β or ROCK-1 Inhibition to Target Tau Aggregation and Neuroinflammation in Alzheimer’s Disease—Discovery, In Vitro and In Cellulo Activity of Thiazole-Based Inhibitors” (Molecules, 2024).

Each structure is given as a SMILES string. Where only a bound is given, the exact number is not on record here.

Broadly, the viability is a read-out of living cells in per cent, often relative to untreated cells. Broadly, the IC50 is the concentration at which inhibition is half-maximal.

A short description of series [1]: Cytotoxicity, PrestoBlue cell viability assay in HT-22 cells. The class given is cell-based, mouse. Conditions: mouse, HT-22 hippocampal neuronal cells, 24 h; for viability at 24 h, 1 µM: 1 µM (log C -6); for viability at 24 h, 1 µM / viability at 24 h, 10 µM / viability at 24 h, 50 µM / viability at 24 h, 100 µM / viability at 24 h, 0.1 µM: read-out: neurotoxicity in HT-22 cells, % of cell viability; for viability at 24 h, 10 µM: 10 µM (log C -5); for viability at 24 h, 50 µM: 50 µM (log C -4.3); for viability at 24 h, 100 µM: 100 µM (log C -4); for IC50 at 24 h: PrestoBlue, mean ± SEM, read-out: Cytotoxicity in HT-22 Cells (IC50 x¯ ± SEM µM). The procedure:
(§1) We assessed their cytotoxic effects at five concentrations (0.1, 1, 10, 50, and 100 µM) in HT-22 (mouse hippocampal neuronal cells) and BV-2 (mouse microglial cells) cell lines using a fluorometric assay with PrestoBlue™ cell viability reagent (Table 4, Table S2 in the SI).
(§2) Mouse microglial cells (BV-2) were a generous gift from Professor Bozena Kaminska-Kaczmarek of the Laboratory of Molecular Neurobiology, Neurobiology Center, Nencki Institute of Experimental Biology, Polish Academy of Sciences, Warsaw, Poland. Cells were cultured in Dulbecco’s modified Eagle’s Medium-high glucose (DMEM, Glutamx Thermo Fisher, Waltham, MA, USA) supplemented with 10% inactivated fetal bovine serum (Thermo Fisher), 100 IU/mL penicillin (Merck), and 100 µg/mL streptomycin (Merck). Cells were cultured in flasks (area 175 cm^2, Nunc) and incubated at 37 °C, 5% CO2. To evaluate the level of NO, IL-6, and TNF-α and the effectiveness of the compounds tested, BV-2 microglia cells were cultured in 96-well culture plates (5 × 10^4 cells per well, Falcon). For the measurement of cell viability and cell membrane damage, cells were placed in 96-well culture plates (2 × 10^4 cells per well, Falcon). Before the tests, cells were grown for 24 h in the incubator (37 °C, 5% CO2). Mouse Hippocampal Neuronal Cell Line (HT-22) was a generous gift from Dr Bartosz Pomierny of the Department of Biochemical Toxicology, Jagiellonian University Medical College, Krakow, Poland. Cells were cultured in Dulbecco’s modified Eagle’s Medium-high glucose (DMEM, Glutamx Thermo Fisher) supplemented with 10% inactivated fetal bovine serum (Thermo Fisher), 100 IU/mL penicillin (Merck), and 100 µg/mL streptomycin (Merck). Cells were cultured in flasks (area 175 cm^2, Nunc) and incubated at 37 °C, 5% CO2. For the measurement of cell viability and neuroprotective effects against okadaic acid, cells were placed in 96-well culture plates (2 × 10^4 cells per well, Falcon). Before the tests, cells were grown for 24 h in the incubator (37 °C, 5% CO2).
(§3) Cell viability was evaluated using the PrestoBlue reagent (Thermo Fisher), according to the manufacturer’s procedures. Following 24 h of incubation with the tested molecule, PrestoBlue reagent was added to a microplate well in an amount equal to one-tenth of the remaining medium volume. The resulting mixture was incubated for 15 min at 37 °C, and the fluorescence intensity (EX 530; EM 580 nm) was measured using the plate reader POLARstar Omega, (BMG Labtech, Ortenberg, Germany). The results (viability values) are provided as a percentage of live cells with respect to DMSO (control sample).
(§4) Cytotoxic effects of selected inhibitors in HT-22 mouse hippocampal neuronal cells and BV-2 mouse microglial cells
(§5) Table S2. Cytotoxic effects of selected inhibitors in HT-22 mouse hippocampal neuronal cells and BV-2 mouse microglial cells. neurotoxicity in HT-22 cellsa immunotoxicity in BV-2 cellsa […]
(§6) a % of cell viability at the given concentration of tested compound; mean value ± standard deviation (SD) of triplicates; b half maximal inhibitory concentration of the tested compound; mean value ± standard error of the mean (SEM) of triplicates; c data obtained in log C of 39 of -8.5; -7.5; -6.5; -5.5; -5, respectively; d data obtained in log C of 49 of -7.5; -6.5; -5.5; -4.5; -4. respectively; nt, not tested.

For series [2], the system named is HT-22 (mouse hippocampal neuronal cells). The series is described as above. The format is cell-based. The settings on record: for effect on cell viability in HT-22 cells (in words): 0.1, 1, 10, 50, and 100 µM. The procedure: as §1, §2, §3, §4, §5, §6

Regarding `CC(C)C(=O)Nc1cc(-c2cc3c(s2)C(=O)NC(C)(C)N3)ccn1` [Compound 39, N-(4-(2,2-Dimethyl-4-oxo-1,2,3,4-tetrahydrothieno [3,2-d]pyrimidin-6-yl)pyridin-2-yl)isobutyramide], in series [1], the viability at 24 h, 1 µM amounted to 84%; the viability at 24 h, 10 µM was found to be 55%; the viability at 24 h, 50 µM turned out to be 35%; the viability at 24 h, 100 µM was 29%. In addition, in series [1], the concentration for half-maximal inhibition (IC50) at 24 h came to 8.4 ± 5.3 µM and the viability at 24 h, 0.1 µM came out at 91%. Also, the “effect on cell viability in HT-22 cells (in words)” value (“effect on cell viability” below) in series [2] was “decreased cells’ viability”.

`CC1(C)NC(=O)c2sc(-c3ccnc(NC(=O)C4CC4)c3)cc2N1` [Compound 40, N-(4-(2,2-Dimethyl-4-oxo-1,2,3,4-tetrahydrothieno [3,2-d]pyrimidin-6-yl)pyridin-2-yl)-cyclopropanecarboxamide]: in series [1], the viability at 24 h, 1 µM was found to be 105%; the viability at 24 h, 10 µM is 71%; the viability at 24 h, 50 µM turned out to be 28%; the viability at 24 h, 100 µM came out at 21%. In addition, in series [1], the IC50 at 24 h is 19.9 ± 4.1 µM and the viability at 24 h, 0.1 µM stood at 100%. Further, the “effect on cell viability” value in series [2] is “decreased cells’ viability”.

As for `CC1(C)NC(=O)c2sc(-c3ccnc(NC(=O)C4CCC4)c3)cc2N1` [Compound 41, N-(4-(2,2-Dimethyl-4-oxo-1,2,3,4-tetrahydrothieno [3,2-d]pyrimidin-6-yl)pyridin-2-yl)-cyclobutanecarboxamide], the “effect on cell viability” value in series [2] is recorded as “decreased cells’ viability”.

Regarding `CC(C)C(=O)Nc1cc(-c2cc(NC(N)=O)c(C(N)=O)s2)ccn1` [Compound 48, 5-(2-Isobutyramidopyridin-4-yl)-3-ureidothiophene-2-carboxamide], in series [1], the viability at 24 h, 1 µM was determined as 89%; the viability at 24 h, 10 µM came out at 77%; the viability at 24 h, 50 µM was 52%; the IC50 at 24 h turned out to be 36.6 ± 4.3 µM. In addition, in series [1], the viability at 24 h, 0.1 µM turned out to be 92%. Moreover, in series [2], the “effect on cell viability” value was “decreased cells’ viability”.

Turning to `NC(=O)Nc1cc(-c2ccnc(NC(=O)C3CC3)c2)sc1C(N)=O` [Compound 49, 5-(2-(Cyclopropanecarboxamido)pyridin-4-yl)-3-ureidothiophene-2-carboxamide], in series [1], the viability at 24 h, 1 µM was 102%; the viability at 24 h, 10 µM was 101%; the viability at 24 h, 50 µM was determined as 88%; the viability at 24 h, 100 µM was found to be 76%. In series [1], the IC50 at 24 h is greater than 100 µM and the viability at 24 h, 0.1 µM turned out to be 95%. Also, in series [2], the “effect on cell viability” value was “no significant decrease in cell viability” and the “effect on viability of HT-22 cells at concentrations up to 10 µM (in words)” value (shortened to “effect on viability of HT-22 cells”) is on record as “did not decrease the viability of the cells”.

Take `NC(=O)Nc1cc(-c2ccnc(NC(=O)C3CCC3)c2)sc1C(N)=O` [Compound 50, 5-(2-(Cyclobutanecarboxamido)pyridin-4-yl)-3-ureidothiophene-2-carboxamide]: the “effect on cell viability” value in series [2] is on record as “no significant decrease in cell viability”.

Consider `NC(=O)Nc1cc(-c2cccc(NC(=O)C3CC3)c2)sc1C(N)=O` [Compound 58, 5-(3-(Cyclopropanecarboxamido)phenyl)-3-ureidothiophene-2-carboxamide], for which, in series [1], the viability at 24 h, 1 µM was determined as 92%; the viability at 24 h, 10 µM amounted to 89%; the viability at 24 h, 50 µM stood at 54%; the viability at 24 h, 100 µM amounted to 45%. Further, in series [1], the concentration for half-maximal inhibition (IC50) at 24 h came out at 67.1 ± 14.5 µM and the viability at 24 h, 0.1 µM stood at 94%. Also, in series [2], the “effect on cell viability” value is “decreased cells’ viability” and the “effect on viability of HT-22 cells” value was “did not decrease the viability of the cells”.

As to `O=C1NC2(CCCC2)Nc2cc(-c3ccnc(NC(=O)C4CC4)c3)sc21` [Compound 60, N-(4-(4’-Oxo-3’,4’-dihydro-1’H-spiro[cyclopentane-1,2’-thieno [3,2-d]pyrimidin]-6’-yl)pyridin-2-yl)cyclopropanecarboxamide], in series [1], the viability at 24 h, 1 µM was 105%; the viability at 24 h, 10 µM stood at 62%; the viability at 24 h, 50 µM was 36%; the viability at 24 h, 100 µM was determined as 31%. Further, in series [1], the IC50 at 24 h amounted to 9.7 ± 5.8 µM and the viability at 24 h, 0.1 µM came out at 101%. The “effect on cell viability” value in series [2] is listed as “decreased cells’ viability”.

Turning to `O=C1NC2(CCOC2)Nc2cc(-c3ccnc(NC(=O)C4CC4)c3)sc21` (stereo not drawn) [Compound 62, N-(4-(4′-Oxo-3′,4,4′,5-tetrahydro-1′H,2H-spiro[furan-3,2′-thieno [3,2-d]pyrimidin]-6′-yl)pyridin-2-yl)cyclopropanecarboxamide], in series [1], the viability at 24 h, 1 µM stood at 108%; the viability at 24 h, 10 µM amounted to 105%; the viability at 24 h, 50 µM turned out to be 35%; the viability at 24 h, 100 µM worked out at 29%. In addition, in series [1], the IC50 at 24 h was found to be 58.3 ± 10 µM and the viability at 24 h, 0.1 µM worked out at 106%. In series [2], the “effect on cell viability” value is given as “decreased cells’ viability” and the “effect on viability of HT-22 cells” value is recorded as “did not decrease the viability of the cells”.

Regarding `COc1nc(-c2ccnc(NC(=O)C3CC3)c2)sc1C(N)=O` [II, reference compound], in series [1], the viability at 24 h, 1 µM is 104%; the viability at 24 h, 10 µM amounted to 87%; the viability at 24 h, 50 µM worked out at 77%; the viability at 24 h, 100 µM was determined as 64%. Besides, in series [1], the IC50 at 24 h was greater than 100 µM and the viability at 24 h, 0.1 µM stood at 107%. Further, the “effect on cell viability” value in series [2] is “decreased cells’ viability”.
